Results on 26 molecules are retold here after ChEMBL document CHEMBL1134995, “Enhancement of pharmacokinetic properties and in vivo efficacy of benzylidene ketal M(2) muscarinic receptor antagonists via benzamide modification” (Bioorg Med Chem Lett, 2002).

In series [1] the target is T1, Muscarinic acetylcholine receptor M2 (Rattus norvegicus, UniProt P10980).
T1 sequence (P10980 whole entry): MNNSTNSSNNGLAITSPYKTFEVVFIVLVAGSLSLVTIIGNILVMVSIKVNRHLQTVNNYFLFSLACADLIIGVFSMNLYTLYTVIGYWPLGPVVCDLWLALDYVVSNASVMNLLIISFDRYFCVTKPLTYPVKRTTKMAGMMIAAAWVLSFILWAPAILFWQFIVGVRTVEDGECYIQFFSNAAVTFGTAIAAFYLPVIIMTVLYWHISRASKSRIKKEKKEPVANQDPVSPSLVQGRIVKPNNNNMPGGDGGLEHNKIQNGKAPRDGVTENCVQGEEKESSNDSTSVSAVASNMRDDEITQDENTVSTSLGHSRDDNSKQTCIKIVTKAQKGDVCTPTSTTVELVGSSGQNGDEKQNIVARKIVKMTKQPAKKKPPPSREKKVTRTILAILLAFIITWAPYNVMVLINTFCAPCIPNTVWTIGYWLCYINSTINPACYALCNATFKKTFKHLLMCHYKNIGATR
In words: Binding affinity towards Muscarinic acetylcholine receptor M2.

The target of series [2] is Muscarinic receptor M1 and M2 (Rattus norvegicus) (UniProt P08482+P10980). In words: Ratio of binding affinity of muscarinic M1 receptor to muscarinic M2 receptor. The class given is protein assay.
Sequence of Muscarinic receptor M1 and M2 (Rattus norvegicus) (P08482 whole entry, looked up, one chain of several): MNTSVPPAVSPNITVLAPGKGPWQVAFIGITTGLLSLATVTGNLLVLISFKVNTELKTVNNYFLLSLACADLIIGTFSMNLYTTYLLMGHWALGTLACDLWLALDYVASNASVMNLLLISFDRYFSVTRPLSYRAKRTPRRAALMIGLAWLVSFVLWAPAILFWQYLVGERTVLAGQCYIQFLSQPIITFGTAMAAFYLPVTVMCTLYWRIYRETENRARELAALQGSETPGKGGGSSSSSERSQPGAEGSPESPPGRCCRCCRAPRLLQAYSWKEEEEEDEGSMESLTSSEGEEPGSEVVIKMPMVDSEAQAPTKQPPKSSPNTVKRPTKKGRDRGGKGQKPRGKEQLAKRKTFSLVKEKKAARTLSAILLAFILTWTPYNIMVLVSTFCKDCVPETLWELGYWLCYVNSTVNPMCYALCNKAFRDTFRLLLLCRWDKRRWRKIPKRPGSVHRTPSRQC
In series [3] the target is Muscarinic receptor M2 and M3 (Rattus norvegicus) (UniProt P08483+P10980). Put plainly: Ratio of binding affinity for muscarinic M3 receptor to muscarinic M2 receptor. The class given is protein assay.
Sequence of Muscarinic receptor M2 and M3 (Rattus norvegicus) (P08483 whole entry, looked up, one chain of several): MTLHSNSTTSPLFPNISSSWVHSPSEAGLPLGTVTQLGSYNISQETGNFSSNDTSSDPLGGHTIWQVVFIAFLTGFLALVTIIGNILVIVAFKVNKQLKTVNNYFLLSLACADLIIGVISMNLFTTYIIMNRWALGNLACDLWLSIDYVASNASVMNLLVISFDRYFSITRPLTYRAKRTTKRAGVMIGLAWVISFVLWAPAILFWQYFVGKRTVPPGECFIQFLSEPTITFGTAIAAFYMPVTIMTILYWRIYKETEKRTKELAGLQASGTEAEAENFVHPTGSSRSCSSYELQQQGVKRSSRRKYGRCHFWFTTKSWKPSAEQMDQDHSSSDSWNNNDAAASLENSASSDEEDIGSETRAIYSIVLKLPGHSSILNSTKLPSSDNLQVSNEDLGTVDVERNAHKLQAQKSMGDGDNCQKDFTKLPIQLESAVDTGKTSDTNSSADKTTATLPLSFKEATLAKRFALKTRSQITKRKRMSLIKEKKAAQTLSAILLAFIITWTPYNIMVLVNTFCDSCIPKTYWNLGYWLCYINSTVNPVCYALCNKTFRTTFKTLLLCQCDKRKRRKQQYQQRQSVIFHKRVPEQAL
The species entered for series [4] is Rattus norvegicus. Put plainly: Efficacy was tested in a rat microdialysis assay where ACh release levels were measured. The class given is functional.
The test system of series [5] is Rattus norvegicus. Put plainly: Effect of compound on heart rate in rats at 1 mg/kg was determined; Not effected. The class given is functional, organism-based. Also on record: dose 1 mg/kg.
The nature of series [6]: Oral bioavailability in rats was determined; High. The class given is ADME, organism-based. The note with it: rat, in vivo.
In series [7] the test system is Rattus norvegicus. Put plainly: Compound was tested for activity in rat passive avoidance response (PAR) experiment, pretreatment time 1 hr with oral dose ranging from 0.001 to 0.1 mg/kg; Active. The class given is functional, organism-based.
Series [8] in a line: Area under curve was determined.
Series [9] deals with Rattus norvegicus. Put plainly: Effect of compound on heart rate in rats at 3 and 10 mg/kg was determined; Increase. The class given is functional, organism-based. Also on record: dose 10 mg/kg.
Series [10] is described as follows: Oral bioavailability in cynomolgus monkeys was determined; Acceptable. The following applies: cynomolgus monkey, in vivo. The class given is ADME, organism-based, Macaca fascicularis.

Molecules are shown by their SMILES. Calls of active or inactive are those of the source. The calls are words filed in the database; no cut-off is given here.

Usually Ki stands for the dissociation constant of the complex between target and ligand, obtained from inhibition or displacement. In [1], `COc1ccc(S(=O)(=O)c2ccc(C3(C4CCN(C5CCN(C(=O)c6ccc(F)cc6N)CC5)CC4)OCCO3)cc2)cc1` registered an inhibition constant Ki of 0.44 nM. Same read-out and setting: for `COc1ccc(S(=O)(=O)c2ccc(C3(C4CCN(C5CCN(C(=O)c6cc(N)ccc6Cl)CC5)CC4)OCCO3)cc2)cc1` the value was 0.53 nM. For `COc1ccc(S(=O)(=O)c2ccc(C3(C4CCN(C5CCN(C(=O)c6ccccc6C)CC5)CC4)SCCS3)cc2)cc1`, the Ratio was determined as 89 in series [2] and 15 in series [3]. Moreover, affinity in series [1] was put at a Ki of 0.86 nM.

For the molecule `COc1ccc(S(=O)(=O)c2ccc(C3(C4CCN(C5CCN(C(=O)c6ccccc6OC)CC5)CC4)OCCO3)cc2)cc1`, the Ki in series [1] worked out at 1.2 nM. On the same count and under the same terms, for `COc1ccc(S(=O)(=O)c2ccc(C3(C4CCN(C5CCN(C(=O)c6ccccc6C(F)(F)F)CC5)CC4)OCCO3)cc2)cc1` the value was 1 nM; for `COc1ccc(S(=O)(=O)c2ccc(C3(C4CCN(C5CCN(C(=O)c6cc(F)ccc6N)CC5)CC4)OCCO3)cc2)cc1`, 0.68 nM. Consider `COc1ccc(S(=O)(=O)c2ccc(C3(C4CCN(C5CCN(C(=O)c6cccc(C)c6C)CC5)CC4)OCCO3)cc2)cc1`, for which the Ratio in [2] was determined as 66; in series [3], 40. The affinity in series [1], expressed as Ki, was 1.4 nM. Turning to `COc1ccc(S(=O)(=O)c2ccc(C3(C4CCN(C5CCN(C(=O)c6ccc(F)c7ccccc67)CC5)CC4)OCCO3)cc2)cc1`, the Acetylcholine release in the series filed under Rattus norvegicus [4] was 180%. In series [1], `COc1ccc(S(=O)(=O)c2ccc(C3(C4CCN(C5CCN(C(=O)c6ccccc6Cl)CC5)CC4)OCCO3)cc2)cc1` had a Ki of 1.6 nM.

With `COc1ccc([S+]([O-])c2ccc(C3(C4CCN(C5CCN(C(=O)c6ccccc6C)CC5)CC4)OCCO3)cc2)cc1` (configuration not stated), the Ratio was determined as 146 in series [2] and 35 in series [3]. In series [1], the Ki turned out to be 2.5 nM. What is called bioavailability is the share of a dose that reaches the circulation, judged against a reference dose that is usually intravenous. A high value points to much systemic uptake. The term AUC denotes the area under the concentration-time curve, a measure of exposure. For the molecule `COc1ccc(S(=O)(=O)c2ccc(C3(C4CCN(C5CCN(C(=O)c6cccc(C)c6N)CC5)CC4)OCCO3)cc2)cc1`, the Heart rate entry in the series on Rattus norvegicus [5] is “inactive”. In addition, the Acetylcholine release in the series filed under Rattus norvegicus [4] came to 194%. The bioavailability in series [6] worked out at 80%; in [10] it was 15%. Further, in the series on Rattus norvegicus [7], the result was Active. The same molecule had an AUC in series [8] of 1570 ng·h/mL. In addition, the Heart rate result in the series on Rattus norvegicus [9] was “Increased heart rate”. This molecule also came in with a Ki in series [1] of 0.39 nM. The molecule `COc1ccc(S(=O)(=O)c2ccc(C3(C4CCN(C5CCN(C(=O)c6cccc(N)c6)CC5)CC4)OCCO3)cc2)cc1` had a Ki in series [1] of 0.78 nM.

On to `COc1ccc(S(=O)(=O)c2ccc(C3(C4CCN(C5CCN(C(=O)c6ccccc6Br)CC5)CC4)OCCO3)cc2)cc1`, for which the affinity in [1] corresponds to a Ki of 1.8 nM. Regarding `COc1ccc(S(=O)(=O)c2ccc(C3(C4CCN(C5CCN(C(=O)c6cccc(Cl)c6C)CC5)CC4)OCCO3)cc2)cc1`, the Ratio in series [2] was found to be 42. The molecule further gave an inhibitory constant (Ki) in series [1] of 0.72 nM. On to `COc1ccc(S(=O)(=O)c2ccc(C3(C4CCN(C5CCN(C(=O)c6ccccc6N)CC5)CC4)OCCO3)cc2)cc1`, for which the Ki in series [1] is 1.5 nM. On to `COc1ccc(S(=O)(=O)c2ccc(C3(C4CCN(C5CCN(C(=O)c6cccc(N)c6Cl)CC5)CC4)OCCO3)cc2)cc1`, for which the Acetylcholine release in the series filed under Rattus norvegicus [4] was determined as 135%. The molecule also returned a Ki in series [1] of 0.53 nM. Regarding `COc1ccc(S(=O)(=O)c2ccc(C3(C4CCN(C5CCN(C(=O)c6ccccc6F)CC5)CC4)OCCO3)cc2)cc1`, the Ratio in [2] was 49; in [3], 8. Affinity in [1] was put at a Ki of 4.8 nM. As for `COc1ccc(S(=O)(=O)c2ccc(C3(C4CCN(C5CCN(C(=O)c6ccccc6C)CC5)CC4)O[C@H](C)[C@@H](C)O3)cc2)cc1`, in [2], the Ratio stood at 32. Besides, affinity in series [1] was put at a Ki of 18 nM. In series [1], `CNc1ccccc1C(=O)N1CCC(N2CCC(C3(c4ccc(S(=O)(=O)c5ccc(OC)cc5)cc4)OCCO3)CC2)CC1` yielded a Ki of 0.9 nM. The same measure, in the same setting: for `COc1ccc(S(=O)(=O)c2ccc(C3(C4CCN(C5CCN(C(=O)c6cccc(Cl)c6N)CC5)CC4)OCCO3)cc2)cc1` the value was 1.1 nM; for `COc1ccc(S(=O)(=O)c2ccc(C3(C4CCN(C5CCN(C(=O)c6c(Cl)cccc6Cl)CC5)CC4)OCCO3)cc2)cc1`, 2.3 nM. As to `COc1ccc(S(=O)(=O)c2ccc(C3(C4CCN(C5CCN(C(=O)c6ccccc6C)CC5)CC4)OCCO3)cc2)cc1`, the Ki in series [1] is 0.54 nM. For `COc1ccc([S+]([O-])c2ccc(C3(C4CCN(C5CCN(C(=O)c6ccccc6C)CC5)CC4)O[C@H](C)[C@@H](C)O3)cc2)cc1` (some centres not stated), in series [2], the Ratio amounted to 14. For the same molecule, the affinity in series [1] corresponds to a Ki of 51 nM. With `COc1ccc(S(=O)(=O)c2ccc(C3(C4CCN(C5CCN(C(=O)c6cccc(N)c6C)CC5)CC4)OCCO3)cc2)cc1`, in [1], the Ki was determined as 0.4 nM. With `Cc1ccccc1C(=O)N1CCC(N2CCC(C3(c4ccc(S(=O)(=O)c5ccc6c(c5)OCO6)cc4)OCCO3)CC2)CC1`, the Ratio in series [2] was 28; in [3], 8. This molecule also displayed a Ki in [1] of 0.065 nM. `COc1ccc(S(=O)(=O)c2ccc(C3(C4CCN(C5CCN(C(=O)c6cccc(F)c6N)CC5)CC4)OCCO3)cc2)cc1` registered a Ki in [1] of 0.51 nM.
